Columns and labels:
[1] = molecular target: Monoamine transporters; serotonin & dopamine (Homo sapiens) (UniProt P31645+Q01959); assay: Selectivity was measured as SERT/DAT; assay type: protein assay
Rattus norvegicus = species on record: Rattus norvegicus; assay: Inhibition of [3H]dopamine reuptake in rat […]; assay type: functional
[2] = molecular target: Norepinephrine transporter (Rattus norvegicus, UniProt Q9WTR4); assay: Binding affinity was evaluated by measuring inhibiting the binding of [3H]nisoxetine to Norepinephrine transporter in rat brain tissue; assay type: tissue-based
Norepinephrine transporter, sequence (Q9WTR4 whole entry): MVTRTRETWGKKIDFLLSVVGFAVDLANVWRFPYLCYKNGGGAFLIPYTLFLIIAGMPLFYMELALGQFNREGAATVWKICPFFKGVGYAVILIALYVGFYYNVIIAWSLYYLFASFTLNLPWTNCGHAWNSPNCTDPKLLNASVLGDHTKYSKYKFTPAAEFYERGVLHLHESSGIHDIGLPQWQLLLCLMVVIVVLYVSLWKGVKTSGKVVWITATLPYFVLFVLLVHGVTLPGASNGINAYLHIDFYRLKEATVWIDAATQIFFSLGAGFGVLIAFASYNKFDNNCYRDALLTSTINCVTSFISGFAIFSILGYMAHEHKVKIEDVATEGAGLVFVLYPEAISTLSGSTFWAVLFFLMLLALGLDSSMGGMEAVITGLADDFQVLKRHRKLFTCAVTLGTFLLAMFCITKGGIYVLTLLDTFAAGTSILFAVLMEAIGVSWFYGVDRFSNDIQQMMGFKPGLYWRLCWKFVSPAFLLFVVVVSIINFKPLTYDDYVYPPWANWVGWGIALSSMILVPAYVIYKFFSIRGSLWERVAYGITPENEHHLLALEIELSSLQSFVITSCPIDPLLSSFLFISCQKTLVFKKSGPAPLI

[3] = molecular target: Sodium-dependent serotonin transporter (Rattus norvegicus, UniProt P31652); assay: Binding affinity was evaluated by measuring inhibiting the binding of [3H]citalopram to Serotonin transporter in rat brain tissue; assay type: tissue-based
Sodium-dependent serotonin transporter, sequence (P31652 whole entry): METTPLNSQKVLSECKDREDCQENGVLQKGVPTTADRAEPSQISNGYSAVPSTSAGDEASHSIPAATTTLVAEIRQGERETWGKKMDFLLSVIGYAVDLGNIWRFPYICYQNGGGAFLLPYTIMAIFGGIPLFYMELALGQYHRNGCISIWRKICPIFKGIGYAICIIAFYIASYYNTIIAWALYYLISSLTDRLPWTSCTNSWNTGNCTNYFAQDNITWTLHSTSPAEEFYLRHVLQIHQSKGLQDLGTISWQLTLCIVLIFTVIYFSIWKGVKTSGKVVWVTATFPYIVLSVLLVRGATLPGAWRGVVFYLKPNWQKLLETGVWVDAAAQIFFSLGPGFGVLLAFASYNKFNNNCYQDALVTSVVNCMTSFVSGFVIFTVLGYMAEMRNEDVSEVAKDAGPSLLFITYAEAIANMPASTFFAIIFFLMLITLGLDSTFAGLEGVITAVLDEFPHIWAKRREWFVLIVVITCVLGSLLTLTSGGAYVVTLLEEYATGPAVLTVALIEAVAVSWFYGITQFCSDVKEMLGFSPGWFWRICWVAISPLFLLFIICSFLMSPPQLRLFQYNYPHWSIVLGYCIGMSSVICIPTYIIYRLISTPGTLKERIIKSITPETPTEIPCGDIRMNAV

[4] = molecular target: Sodium-dependent dopamine transporter (Rattus norvegicus, UniProt P23977); assay: Binding affinity was evaluated by measuring the inhibition of [3H]WIN-35428 binding to Dopamine transporter in rat brain tissue; assay type: tissue-based
Sodium-dependent dopamine transporter, sequence (P23977 whole entry): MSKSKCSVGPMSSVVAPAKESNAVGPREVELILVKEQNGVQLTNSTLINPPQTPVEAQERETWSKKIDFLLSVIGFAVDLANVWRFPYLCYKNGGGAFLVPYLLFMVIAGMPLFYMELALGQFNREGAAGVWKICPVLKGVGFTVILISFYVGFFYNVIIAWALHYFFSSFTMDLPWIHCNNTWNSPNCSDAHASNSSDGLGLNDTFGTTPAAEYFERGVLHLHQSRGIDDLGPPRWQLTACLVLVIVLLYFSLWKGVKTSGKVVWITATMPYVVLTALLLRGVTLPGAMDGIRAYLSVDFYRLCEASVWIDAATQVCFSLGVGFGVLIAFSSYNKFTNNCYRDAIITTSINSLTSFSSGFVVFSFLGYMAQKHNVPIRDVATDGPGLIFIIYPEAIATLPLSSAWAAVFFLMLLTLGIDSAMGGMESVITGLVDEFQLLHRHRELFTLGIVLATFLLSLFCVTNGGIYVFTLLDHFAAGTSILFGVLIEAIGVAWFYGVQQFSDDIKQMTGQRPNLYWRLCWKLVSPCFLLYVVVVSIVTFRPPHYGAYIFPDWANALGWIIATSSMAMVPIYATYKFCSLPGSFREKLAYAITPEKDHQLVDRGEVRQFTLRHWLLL

Monoamine transporters; serotonin & dopamine (Homo sapiens), sequence (P31645 whole entry, looked up): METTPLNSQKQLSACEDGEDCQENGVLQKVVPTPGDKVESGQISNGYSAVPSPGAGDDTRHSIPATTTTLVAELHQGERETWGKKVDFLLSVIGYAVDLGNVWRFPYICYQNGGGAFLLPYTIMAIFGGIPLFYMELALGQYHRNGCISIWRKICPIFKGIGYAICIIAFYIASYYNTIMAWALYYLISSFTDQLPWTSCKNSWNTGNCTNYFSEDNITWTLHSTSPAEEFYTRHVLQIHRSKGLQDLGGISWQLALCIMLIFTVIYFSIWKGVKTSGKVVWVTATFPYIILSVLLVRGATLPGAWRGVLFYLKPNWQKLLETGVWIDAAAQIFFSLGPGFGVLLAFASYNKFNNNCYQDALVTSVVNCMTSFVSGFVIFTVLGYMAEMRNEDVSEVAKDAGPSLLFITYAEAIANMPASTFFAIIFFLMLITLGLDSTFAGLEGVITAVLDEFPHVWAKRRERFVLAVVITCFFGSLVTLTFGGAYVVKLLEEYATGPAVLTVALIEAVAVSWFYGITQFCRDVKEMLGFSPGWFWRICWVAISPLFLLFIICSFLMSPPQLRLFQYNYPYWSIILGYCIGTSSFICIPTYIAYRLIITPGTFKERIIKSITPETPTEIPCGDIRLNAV
Monoamine transporters; serotonin & dopamine (Homo sapiens), sequence (Q01959 whole entry, looked up): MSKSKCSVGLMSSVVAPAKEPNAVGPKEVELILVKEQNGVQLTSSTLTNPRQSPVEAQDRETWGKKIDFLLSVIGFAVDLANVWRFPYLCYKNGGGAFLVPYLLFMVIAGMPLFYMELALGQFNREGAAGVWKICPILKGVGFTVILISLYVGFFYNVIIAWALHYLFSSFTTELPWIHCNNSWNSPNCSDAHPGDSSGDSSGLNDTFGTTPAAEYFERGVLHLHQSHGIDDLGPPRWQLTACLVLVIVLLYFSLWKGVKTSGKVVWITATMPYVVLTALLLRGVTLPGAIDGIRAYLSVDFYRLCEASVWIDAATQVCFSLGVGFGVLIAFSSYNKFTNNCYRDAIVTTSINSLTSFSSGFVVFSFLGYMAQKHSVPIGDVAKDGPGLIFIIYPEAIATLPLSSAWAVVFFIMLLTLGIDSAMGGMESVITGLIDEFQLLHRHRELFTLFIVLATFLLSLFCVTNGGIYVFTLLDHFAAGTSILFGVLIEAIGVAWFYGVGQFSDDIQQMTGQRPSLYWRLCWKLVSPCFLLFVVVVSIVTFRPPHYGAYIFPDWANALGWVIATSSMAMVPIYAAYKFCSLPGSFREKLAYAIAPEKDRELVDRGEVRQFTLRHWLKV

## Fc1ccc(CN2CCC(CNCC(c3ccccc3)c3ccccc3)CC2)cc1
[1]
  Selectivity: 6.9

## Fc1ccc(CNC2CCC(C(c3ccccc3)c3ccccc3)NC2)cc1 (cis isomer) [listing 1 of 2 here]
Rattus norvegicus
  IC50: 0.0289 µM
[2]
  IC50: 1.35 µM
[3]
  IC50: 2.81 µM

## Fc1ccc(CNC2CCC(C(c3ccccc3)c3ccccc3)NC2)cc1 (cis isomer) [listing 2 of 2 here]
[1]
  Selectivity: 93.7

## O=C(NC1CCC(C(c2ccccc2)c2ccccc2)NC1)c1ccc(F)cc1 (racemic)
[2]
  IC50: 5.61 µM
[4]
  IC50: 0.087 µM
[1]
  Selectivity: 71.4
[3]
  IC50: 6.21 µM

## COC(=O)[C@@H]1C2CC[C@@H](C[C@@H]1OC(=O)c1ccccc1)N2C (single isomer, unassigned) [COCAINE]
Rattus norvegicus; Rattus norvegicus
  IC50: 0.191 µM

## Fc1ccc(CNC2CCC(C(c3ccccc3)c3ccccc3)NC2)cc1 (stereo in doubt) [listing 1 of 2 here]
Rattus norvegicus
  IC50: 0.106 µM
[2]
  IC50: 4.47 µM
[4]
  IC50: 0.0212 µM
[3]
  IC50: 1.33 µM

## Fc1ccc(CNC2CCC(C(c3ccccc3)c3ccccc3)NC2)cc1 (stereo in doubt) [listing 2 of 2 here]
[1]
  Selectivity: 6.28
